pEC50: −log10 of the molar value.

T1 sequence (P13945 whole entry): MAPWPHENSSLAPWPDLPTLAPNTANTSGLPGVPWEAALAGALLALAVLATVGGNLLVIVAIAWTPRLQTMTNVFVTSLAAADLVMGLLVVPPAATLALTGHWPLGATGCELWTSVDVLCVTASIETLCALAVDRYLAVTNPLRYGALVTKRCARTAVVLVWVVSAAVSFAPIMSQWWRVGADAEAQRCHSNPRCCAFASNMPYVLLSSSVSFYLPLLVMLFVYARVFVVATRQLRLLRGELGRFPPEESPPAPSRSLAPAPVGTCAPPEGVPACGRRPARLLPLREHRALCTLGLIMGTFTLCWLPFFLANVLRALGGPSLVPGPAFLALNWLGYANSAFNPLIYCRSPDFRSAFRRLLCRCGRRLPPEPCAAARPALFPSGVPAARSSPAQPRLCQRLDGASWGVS

The first assay concerns the target T1, human β3 adrenergic receptor (Homo sapiens, UniProt P13945).
T1 construct: expressed in transfected cells; host or cells: CHO (Chinese hamster ovary) cells, stably transfected
The assay is described as follows: Beta-3 agonist in vitro functional assay (cAMP production, LANCE, transfected CHO cells). Type of assay: cell-based. Conditions: Table 1, CHO cells with cloned β3 receptor, ligands titrated 10^-10 M to 10^-5 M, read-out: Human β3 agonist functional activity. The procedure: Functional Assay: For compounds in examples 1-50, cAMP production in response to ligand is measured according to Barton, et al. (1991, Agonist-induced desensitization of D2 dopamine receptors in human Y-79 retinoblastoma cells. Mol. Pharmacol. […]:650-658) modified as follows. The cAMP production is measured using a homogenous time-resolved fluorescence resonance energy transfer immunoassay (LANCE™, Perkin Elmer) according to the manufacture's instructions. Chinese hamster ovary (CHO) cells, stably transfected with the cloned β-adrenergic receptor (β1, β2 or β3) are harvested after 3 days of subculturing. Harvesting of cells is done with Enzyme-free Dissociation Media (Specialty Media). Cells are then counted and resuspended in assay buffer (Hank's Balanced salt solution supplemented with 5 mM HEPES, […]) containing a phosphodiesterase inhibitor (IBMX, 0.6 mM). The reaction is initiated by mixing 6,000 cells in 6 μL with 6 μL Alexa Fluor labeled cAMP antibody (LANCE™ kit) which is then added to an assay well containing 12 μL of compound (diluted in assay buffer to 2× final concentration). The reaction proceeds for 30 minutes at RT and is terminated by the addition of 24 ul detection buffer (LANCE™ kit). The assay plate is then incubated for 1 h at RT and time-resolved fluorescence measured on a Perkin Elmer Envision reader or equivalent. The unknown cAMP level is determined by comparing fluorescence levels to a cAMP standard curve.
The non-selective, full agonist β-adrenergic ligand isoproterenol is used at all three receptors to determine maximal stimulation. The human β3 adrenergic receptor (AR) selective ligand (S)-N-[4-[2-[[2-hydroxy-3-(4-hydroxyphenoxy)propyl]amino]ethyl]-phenyl]-4-iodobenzenesulfonamide is used as a control in all assays. […] The EC50 is defined as the concentration of compound that gives 50% activation of its own maximum. Data are analyzed using Microsoft Excel and Graphpad Prism or an internally developed data analysis software package.
The EC50 is defined as the concentration of compound that gives 50% activation of its own maximum. Functional antagonist assays are performed similar to described above; however, unknown ligands are titrated at β-adrenergic receptor subtypes 1 and 2 at a final concentration in the assay of 10^-12 M to 10^-5 M in the presence of 10^-9 M full agonist β-adrenergic ligand isoproterenol. The EC50 is defined as the concentration of compound that gives 50% inhibition of the full agonist response. Data are analyzed using Microsoft Excel and Graphpad Prism or an internally developed data analysis software package.
Take `O=C(NCc1nc2ccccc2[nH]1)c1ccc(C[C@@H]2CC[C@H]([C@H](O)c3ccccc3)N2)cc1` [Example 34]: the pEC50 is 7.00 to 8.00.

Regarding `O=C(NCc1ncccn1)c1ccc(C[C@@H]2CC[C@H]([C@H](O)c3ccccc3)N2)cc1` [Example 9], the pEC50 is 6.00 to 7.00.

`O=C(NCc1ccc2ccccc2n1)c1ccc(C[C@@H]2CC[C@H]([C@H](O)c3ccccc3)N2)cc1` [Example 44]: the pEC50 was 7.00 to 8.00.

For `Cc1ccnc(CNC(=O)c2ccc(C[C@@H]3CC[C@H]([C@H](O)c4ccccc4)N3)cc2)c1` [Example 19], the pEC50 is 7.00 to 8.00.

As for `O=C(NCc1ccncn1)c1ccc(C[C@@H]2CC[C@H]([C@H](O)c3ccccc3)N2)cc1` [Example 12], the pEC50 was 7.00 to 8.00.

In the case of `O=C(NCc1cc(-c2ccccc2)no1)c1ccc(C[C@@H]2CC[C@H]([C@H](O)c3ccccc3)N2)cc1` [Example 29], the pEC50 was 7.00 to 8.00.

On to `Cc1cc(C2CC2)nc(CNC(=O)c2ccc(C[C@@H]3CC[C@H]([C@H](O)c4ccccc4)N3)cc2)n1` [Example 16], for which the pEC50 was 7.00 to 8.00.

Take `O=C(NCc1cc(-c2ccccc2)no1)c1ccc(C[C@@H]2CC[C@H]([C@H](O)c3cccnc3)N2)cc1` [Example 30]: the pEC50 was 7.00 to 8.00.

As to `O=C(NCc1ccccc1-c1c[nH]cn1)c1ccc(C[C@@H]2CC[C@H]([C@H](O)c3ccccc3)N2)cc1` [Example 46], the pEC50 is 6.00 to 7.00.

Take `O=C(NCc1nccc(-c2ccccc2)n1)c1ccc(C[C@@H]2CC[C@H]([C@H](O)c3ccccc3)N2)cc1` [Example 21]: the pEC50 was 7.00 to 8.00.

In the case of `Cc1cccnc1CNC(=O)c1ccc(C[C@@H]2CC[C@H]([C@H](O)c3ccccc3)N2)cc1` [Example 13], the pEC50 was 7.00 to 8.00.

As to `O=C(NCc1nc(-c2ccccc2)n[nH]1)c1ccc(C[C@@H]2CC[C@H]([C@H](O)c3cccnc3)N2)cc1` [Example 33], the pEC50 is 8.00 to 9.00.

Consider `O=C(NCc1ncc(-c2ccccc2)cn1)c1ccc(C[C@@H]2CC[C@H]([C@H](O)c3ccccc3)N2)cc1` [Example 24], for which the pEC50 is 7.00 to 8.00.

As for `Nc1nc(CNC(=O)c2ccc(C[C@@H]3CC[C@H]([C@H](O)c4ccccc4)N3)cc2)cs1` [Example 25], the pEC50 was 7.00 to 8.00.

The assay is the same for the next values; noted with them: Table 3, CHO cells with cloned β3 receptor, ligands titrated 10^-12 M to 10^-5 M, read-out: Human β3 agonist functional activity.
Regarding `CN(Cc1cnccn1)C(=O)c1ccc(C[C@@H]2CC[C@H]([C@H](O)c3ccccc3)N2)cc1` [Example 74], the pEC50 is 7.00 to 8.00.

As to `CC(C1COc2ccccc2O1)N(C)C(=O)c1ccc(C[C@@H]2CC[C@H]([C@H](O)c3ccccc3)N2)cc1` (single isomer, unassigned) [Example 94], the pEC50 was 7.00 to 8.00.

In the case of `CN(Cc1ccccn1)C(=O)c1ccc(C[C@@H]2CC[C@H]([C@H](O)c3ccccc3)N2)cc1` [Example 54], the pEC50 is 6.00 to 7.00.

On to `CCN(CCN)C(=O)c1ccc(C[C@@H]2CC[C@H]([C@H](O)c3ccccc3)N2)cc1` [Example 115], for which the pEC50 is 6.00 to 7.00.

For the compound `Cc1cc2nc(CN(C)C(=O)c3ccc(C[C@@H]4CC[C@H]([C@H](O)c5ccccc5)N4)cc3)[nH]c2cc1C` [Example 101], the pEC50 was 6.00 to 7.00.

As for `O=C(c1ccc(C[C@@H]2CC[C@H]([C@H](O)c3ccccc3)N2)cc1)N(Cc1cccnn1)C1CC1` [Example 130], the pEC50 was 6.00 to 7.00.

Turning to `CN(Cc1cccnc1)C(=O)c1ccc(C[C@@H]2CC[C@H]([C@H](O)c3ccc(N)nc3)N2)cc1` [Example 59], the pEC50 is above 9.00.

As for `CN(Cc1cccnn1)C(=O)c1ccc(C[C@@H]2CC[C@H]([C@H](O)c3ccccc3)N2)cc1` [Example 55], the pEC50 is 6.00 to 7.00.

For the compound `CN(Cc1ccc(Br)cn1)C(=O)c1ccc(C[C@@H]2CC[C@H]([C@H](O)c3ccccc3)N2)cc1` [Example 78], the pEC50 is 7.00 to 8.00.

For the compound `CN(Cc1ccccc1)C(=O)c1ccc(C[C@@H]2CC[C@H]([C@H](O)c3ccccc3)N2)cc1` [Example 68], the pEC50 was 6.00 to 7.00.

Take `CN(Cc1cccc(N2CCCC2)n1)C(=O)c1ccc(C[C@@H]2CC[C@H]([C@H](O)c3ccccc3)N2)cc1` [Example 83]: the pEC50 was 6.00 to 7.00.

For `CCN(Cc1cccnn1)C(=O)c1ccc(C[C@@H]2CC[C@H]([C@H](O)c3ccccc3)N2)cc1` [Example 129], the pEC50 was 6.00 to 7.00.

With `CN(Cc1nnn(C)n1)C(=O)c1ccc(C[C@@H]2CC[C@H]([C@H](O)c3ccccc3)N2)cc1` [Example 72], the pEC50 is 7.00 to 8.00.

For the compound `CN(Cc1ncn(C)n1)C(=O)c1ccc(C[C@@H]2CC[C@H]([C@H](O)c3ccccc3)N2)cc1` [Example 73], the pEC50 is 6.00 to 7.00.

Still in this assay, the particulars now being: given as a range, CHO cells with cloned β3 receptor, read-out: human Beta-3 agonist functional activity.
Take `CN(C)C(=O)c1ccc(C[C@@H]2CC[C@H](C(O)c3ccc(N)nc3)N2)cc1` (stereo partly drawn) [Example 133, 4-({(2S,5R)-5-[(6-aminopyridin-3-yl)(hydroxy)methyl]pyrrolidin-2-yl}methyl)-N,N-dimethylbenzamide]: the pEC50 is 7.00 to 8.00.

Take `CC(c1ccccn1)N(C)C(=O)c1ccc(CC2CC[C@H]([C@H](O)c3ccccc3)N2)cc1` (stereo partly shown) [Example 137]: the pEC50 is 6.00 to 7.00.

In another assay the test system is rats.
Assay: not given
The note with it: intravenous administration, cystometric studies; cited from earlier work.
In the case of `C[C@H](Cc1ccc2c(c1)OC(C(=O)[O-])(C(=O)[O-])O2)NC[C@H](O)c1cccc(Cl)c1.[Na+].[Na+]` [CL316243], the bladder capacity result is listed as “increases bladder capacity”, the micturition interval entry is reported as “prolongation of micturition interval” and the residual urine volume result is “without increasing residual urine volume”.

The assay is the same for the next values; noted with them: intravenous administration; cited from earlier work.
Regarding `C[C@H](Cc1ccc2c(c1)OC(C(=O)[O-])(C(=O)[O-])O2)NC[C@H](O)c1cccc(Cl)c1.[Na+].[Na+]` [CL316243], the bladder pressure entry is “reduces bladder pressure”.

The record behind these values is patent US8604038B2, “Pyrrolidine derived beta 3 adrenergic receptor agonists” (Merck Sharp & Dohme Corp., priority 2009, dated 2013).
